In patent publication US10874667B2, “Pharmaceutical salt of antitumor heterocyclic imidazole compound” (SHANGHAI HUILUN LIFE SCIENCE & TECHNOLOGY CO., LTD., priority 2016, dated 2020):

Test: Solubility test in water (HPLC)
Type: physicochemical
Conditions: stirred at constant temperature for 30 min
Method: The solubility of the salt of the compound of Formula (I) of the present invention was determined by the following method:
a) About 200 mg of the salt of the compound of Formula (I) was accurately weighed, dissolved in 200 ml of an aqueous solution, stirred at a constant temperature for 30 min, and allowed to stand. The supernatant was centrifuged, and then the supernatant of the centrifugate was taken and used as a test solution.
b) About 200 mg of the compound of Formula (I) was accurately weighed, dissolved in aqueous methanol, and quantitatively diluted into a solution containing 0.02 mg of free base per 1 ml.
The solution was used as a reference solution.
The table below compares the solubilities of the compound of Formula (I) and its various forms of salts.

SMILES | Solubility in water
O=C(c1cc(Cc2n[nH]c(=O)c3ccccc23)ccc1F)N1CCN(c2ccc3[nH]cnc3n2)CC1.O=S(=O)(O)c1ccccc1 [4-(3-(4-(1H-imidazo[4,5-b]pyridine-5-yl)piperazine-1-carbonyl)-4-fluorobenzyl)phthalazine-1(dihydro)-one benzenesulfonate] | 230 µg/mL
Cl.O=C(c1cc(Cc2n[nH]c(=O)c3ccccc23)ccc1F)N1CCN(c2ccc3[nH]cnc3n2)CC1 [4-(3-(4-(1H-imidazo[4,5-b]pyridine-5-yl)piperazine-1-carbonyl)-4-fluorobenzyl)phthalazine-1(dihydro)-one hydrochloride] | 340 µg/mL
O=C(c1cc(Cc2n[nH]c(=O)c3ccccc23)ccc1F)N1CCN(c2ccc3[nH]cnc3n2)CC1.O=S(=O)(O)CCO [4-(3-(4-(1H-imidazo[4,5-b]pyridine-5-yl)piperazine-1-carbonyl)-4-fluorobenzyl)phthalazine-1(dihydro)-one hydroxyethanesulfonate] | 310 µg/mL
Cc1ccc(S(=O)(=O)O)cc1.O=C(c1cc(Cc2n[nH]c(=O)c3ccccc23)ccc1F)N1CCN(c2ccc3[nH]cnc3n2)CC1 [4-(3-(4-(1H-imidazo[4,5-b]pyridine-5-yl)piperazine-1-carbonyl)-4-fluorobenzyl)phthalazine-1(dihydro)-one p-toluenesulfonate] | 40 µg/mL
CS(=O)(=O)O.O=C(c1cc(Cc2n[nH]c(=O)c3ccccc23)ccc1F)N1CCN(c2ccc3[nH]cnc3n2)CC1 [4-(3-(4-(1H-imidazo[4,5-b]pyridine-5-yl)piperazine-1-carbonyl)-4-fluorobenzyl)phthalazine-1(dihydro)-onemethanesulfonate] | 300 µg/mL

Same assay, conditions: thermodynamic from solid, stirred at constant temperature for 30 min

SMILES | solubility at 30 min
O=C(c1cc(Cc2n[nH]c(=O)c3ccccc23)ccc1F)N1CCN(c2ccc3[nH]cnc3n2)CC1 [Formula I, 4-(3-(4-(1H-imidazo[4,5-b]pyridine-5-yl)piperazine-1-carbonyl)-4-fluorobenzyl)phthalazine-1(dihydro)-one] | 1 µg/mL
